This note sets out measurements from patent EP4810052A2, “HCRHR2 SELECTIVE POLYPEPTIDES” (Gubra A/S, priority 2023, dated 2026).

For orientation: bioavailability means the share of a dose that reaches the circulation, judged against a reference dose that is usually intravenous. By Cmax is commonly meant the maximum level reached in the sampled fluid or tissue. As usually defined, the Tmax is the time at which the peak concentration occurs. What is called clearance is the volume of plasma or blood freed of the substance per unit of time.

Marks after values point to notes of the source that are not given here. Starred links: 1 amine or outer side, 2 acyl side, 3 side chain; linkers in the order of their positions; H or OH if unused. Non-standard residues stand in square brackets, D forms with d. Residues, ends and D or L forms follow the SMILES beside them. Groups on a side chain read outwards from the residue. *: point of attachment. C20 diacid = O=C(O)CCCCCCCCCCCCCCCCCCC(=O)*; γGlu = O=C(O)[C@H](CCC(=O)[*:2])N[*:1]; NMeI = CC[C@H](C)[C@H](NC)C(=O)O; Nle = CCCC[C@H](N)C(=O)O; AEEA = NCCOCCOCC(=O)O; Aib = CC(C)(N)C(=O)O

Data set [1] is described as follows: Effect on acute food intake in mice. The data set is classed as in vivo. As to conditions: single subcutaneous dose. In short, it runs like this:
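Male NMRI mice (n=7-8 per group) were fasted from six hours before the dark phase. They received a single subcutaneous peptide dose one hour before dark onset. Hourly food intake was monitored for 72 h and expressed as percent reduction versus vehicle, analysed by one-way ANOVA with Dunnett's test.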

Data set [2] is described as follows: Chemical stability of purified peptides (RP-UHPLC main peak purity loss). The format is physicochemical. As to conditions: for Purity loss (RP-UPLC analysis) T28-T0 (%): 28 days. In short, it runs like this:
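Purity loss is the drop in RP-UHPLC main-peak area fraction (215 nm detection, C8 column at 50 °C) from time zero to day 14 and/or day 28 at 40 °C. Samples held roughly 1.0 mg/ml peptide in 50 mM phosphate, pH 7.5, with other pH targets also tested.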

Another data set in a line: PK in minipigs. As to conditions: male, Göttingen, minipig, in vivo; for half-life: read-out: T½ (converted); for bioavailability / Cmax / Tmax: sc; for Cmax / Tmax: 6.0 nmol/kg s.c. As to the method: Pharmacokinetics studies were determined in male Göttingen minipigs from Ellegaard Göttingen Minipigs A/S. Animals were acclimatised for at least 7 days before placed on study. The minipigs had prior to study been surgically implanted with central venous catheters inserted which were used for blood sampling. Animals were housed under a 12/12 h dark-light cycle with ad libitum access to domestic water and animals were fed a commercially standard maintenance diet twice daily.
Test compounds where administrated either as a cassette or as a single compound. Test compounds were administrated by a single intravenous injection or short infusion (5-10 min) through the implanted catheter or a single subcutaneously injection. The subcutaneously injection was given in the mid neck between ear and scapula with a stopper on the needle, allowing 0.5 cm of the needle to be inserted.Plasma concentration-time profiles employing 12-16 sampling points were obtained from each animal. As an example, blood samples were collected on the following times: 0 (predose), 0.17, 0.33, 0.5, 1, 2, 5, 6, 24, 48, 72, 92, 168, 240 and 336 hrs post administration. Approximately 2 mL blood was drawn from the central catheter from each animal at each sampling point. Blood samples were taken in K2 or K3 EDTA tubes. Blood was kept on ice for maximum 30 min before centrifugation (10 min, 4°C, 2000 x g). Approximately 200 µL plasma samples was transferred to a Micronic tube and stored at -20° or lower.
Pharmacokinetics parameters were calculated by non-compartmental analysis (NCA) of the individual plasma concentrations-time profile from the animals. The log-linear trapezoidal method was used for estimation of AUC and AUMC. The terminal T½ was determined as In(2)/λz where λz is the first order rate constant as determined by the terminal log-linear part of the curve.
Plasma concentrations were measured by LC-MSMS using electrospray ionization and multiple reaction monitoring. Calibration standards and quality control (QC) samples were prepared in specie match matrix. 15 µL calibration standards, QC and study samples were extracted by protein precipitation using 60 µL methanol followed by addition of 45 µL milliQ water. Samples were shaken (800 rpm) at room temperature for 5 min before centrifugation (2570×g, 40 min, 4°C) and the supernatant was transferred to a LoBind PCR plate. Samples were analysed on a Thermo Triscend UHPLC system coupled to a Sciex API 6500+ mass spectrometer. Samples were subject to online SPE clean-up on a HLB column (1×50 mm, Waters) before loaded onto a Aeris Peptide XB C18 column (3.6 µm, 100 Å, 2×50 mm, Phenomenex) analytical column. The mobile phases consisted of acetonitrile and milliQ H2O both containing 0.1% V/V formic acid. The flow rate was 0.60 mL/min and the column was kept at room temperature.

Another data set in a line: PK in mice. The data set is classed as in vivo. Further details: T½ / MRT: unit: h. The note with it: for MRT / T½ / clearance / half-life / Cmax / Tmax: Mouse; for bioavailability / clearance / half-life / Cmax / Tmax: male, in vivo; for bioavailability: NMRI, mouse; for clearance / half-life / Cmax / Tmax: NMRI/RjHan; for half-life: read-out: T½ (converted). In short, it runs like this: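 Male NMRI/RjHan lean mice, about 8 weeks old after acclimatization, got one peptide IV and another SC at 15 or 50 nmol/kg. Sparse plasma sampling (3 mice per timepoint) ran from 0.17 to 96 h post-dose. LC-MS/MS quantified plasma levels, with parameters from non-compartmental analysis.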

For the compound `CC[C@H](C)[C@H](NC)C(=O)N[C@H](C(=O)N[C@@H](CC(C)C)C(=O)N[C@@H](CO)C(=O)N[C@@H](CC(C)C)C(=O)N[C@@H](CC(=O)O)C(=O)N[C@H](C(=O)N1CCC[C@H]1C(=O)N[C@H](C(=O)NCC(=O)N[C@@H](CC(C)C)C(=O)N[C@@H](CC(C)C)C(=O)N[C@@H](CCC(N)=O)C(=O)N[C@H](C(=O)N[C@@H](CC(C)C)C(=O)N[C@@H](CC(C)C)C(=O)N[C@@H](CCC(=O)O)C(=O)N[C@@H](CCC(N)=O)C(=O)N[C@@H](C)C(=O)N[C@@H](CCCNC(=N)N)C(=O)N[C@@H](C)C(=O)N[C@@H](CCCNC(=N)N)C(=O)N[C@@H](C)C(=O)N[C@@H](C)C(=O)N[C@@H](CCCNC(=N)N)C(=O)N[C@@H](CCC(=O)O)C(=O)N[C@@H](CCC(N)=O)C(=O)N[C@@H](C)C(=O)N[C@@H](CCCCNC(=O)COCCOCCNC(=O)COCCOCCNC(=O)CC[C@H](NC(=O)CC[C@H](NC(=O)CCCCCCCCCCCCCCCCCCC(=O)O)C(=O)O)C(=O)O)C(=O)N[C@H](C(=O)N[C@@H](CC(N)=O)C(=O)NC(C)(C)C(=O)N[C@@H](CCC(=O)O)C(=O)N[C@H](C(=O)N[C@@H](CC(C)C)C(=O)N[C@@H](C)C(=O)N[C@@H](CCC(=O)O)C(=O)N[C@H](C(N)=O)C(C)C)[C@@H](C)CC)[C@@H](C)O)[C@@H](C)CC)[C@@H](C)CC)C(C)C)C(C)C` [SEQ ID NO: 16] (H-[NMeI]VLSLDVPIGLLQILLEQARARAAREQAK([AEEA-AEEA-γGlu-γGlu-C20 diacid])TN[Aib]EILAEV-NH2), the figures for the “% FI compared to vehicle, 24 h post-dosing” value in data set [1] (30 nmol/kg), in data set [1] (100 nmol/kg) and in data set [1] (300 nmol/kg) were 44.62*** %, 18.21*** % and 12.36*** %, respectively. Moreover, the “Purity loss (RP-UPLC analysis) T14-T0 (%)” value in data set [2] (pH 7.0, 40°C, 14 days) is given as -0.6%; in data set [2] (pH 7.5, 40°C, 14 days), -0.1%; in data set [2] (pH 8.0, 40°C, 14 days) it was -0.5%. The “Purity loss (RP-UPLC analysis) T28-T0 (%)” value in data set [2] (pH 7.0, 40°C) is recorded as -1.1%; in data set [2] (pH 7.5, 40°C) it was -0.3%; in data set [2] (pH 8.0, 40°C), -1.1%. Further, the “Chemical stability at pH 7.5 after 14 days at 40°C (% degradation)” value in data set [2] (pH 7.5, 40°C, 14 days, first value of cell) is recorded as -0.6 / %. Also, the half-life in “PK in minipigs” (iv, Pig, 4.6 nmol/kg i.v.) was 208 h; in the data set “PK in mice” (iv, 15 nmol/kg i.v.), 15.9 h; in “PK in mice” (sc, 15 nmol/kg s.c.), 14.8 h. Besides, the bioavailability in the data set “PK in minipigs” is 66%; in the data set “PK in mice” (sc), 62%. Further, the Cmax in “PK in minipigs” (Pig) came out at 35 nM; in “PK in mice” (sc, 15 nmol/kg s.c.), 60 nM. Further, the time of peak concentration (Tmax) in “PK in minipigs” (Pig) was 48 h; in “PK in mice” (sc, 15 nmol/kg s.c.), 6 h. The MRT in the data set “PK in mice” came to 21.5. Also, in “PK in mice”, the T½ worked out at 15.9. In the data set “PK in mice” (iv, 15 nmol/kg i.v.), this compound gave a clearance of 3.7 mL/h/kg.

With `CCCC[C@H](NC(=O)[C@@H](NC(=O)[C@H](CCC(=O)O)NC(=O)C(C)(C)NC(=O)[C@H](CC(N)=O)NC(=O)[C@@H](NC(=O)[C@H](CCCCNC(=O)COCCOCCNC(=O)COCCOCCNC(=O)CC[C@H](NC(=O)CC[C@H](NC(=O)CCCCCCCCCCCCCCCCCCC(=O)O)C(=O)O)C(=O)O)NC(=O)[C@H](C)NC(=O)[C@H](CCC(N)=O)NC(=O)[C@H](CCC(=O)O)NC(=O)[C@H](CCCNC(=N)N)NC(=O)[C@H](C)NC(=O)[C@H](C)NC(=O)[C@H](CCCNC(=N)N)NC(=O)[C@H](C)NC(=O)[C@H](CCCNC(=N)N)NC(=O)[C@H](C)NC(=O)[C@H](CCC(N)=O)NC(=O)[C@H](CO)NC(=O)[C@H](CC(C)C)NC(=O)[C@H](CC(C)C)NC(=O)[C@@H](NC(=O)[C@H](CCC(N)=O)NC(=O)[C@H](CC(C)C)NC(=O)[C@H](CC(C)C)NC(=O)CNC(=O)[C@@H](NC(=O)[C@@H]1CCCN1C(=O)[C@@H](NC(=O)[C@H](CC(=O)O)NC(=O)[C@H](CC(C)C)NC(=O)[C@H](CO)NC(=O)[C@H](CC(C)C)NC(=O)[C@@H](NC(=O)[C@@H](NC)[C@@H](C)CC)C(C)C)C(C)C)[C@@H](C)CC)[C@@H](C)CC)[C@@H](C)O)[C@@H](C)CC)C(=O)N[C@@H](C)C(=O)N[C@@H](CCC(=O)O)C(=O)N[C@H](C(N)=O)C(C)C` [SEQ ID NO: 215] (H-[NMeI]VLSLDVPIGLLQILLSQARARAAREQAK([AEEA-AEEA-γGlu-γGlu-C20 diacid])TN[Aib]EI[Nle]AEV-NH2), the “% FI compared to vehicle, 24 h post-dosing” value is listed as 38.67*** % in data set [1] (30 nmol/kg), 20.26*** % in data set [1] (100 nmol/kg) and 10.31*** % in data set [1] (300 nmol/kg). Also, the “Purity loss (RP-UPLC analysis) T14-T0 (%)” value in data set [2] (pH 7.0, 40°C, 14 days) was 0.2%; in data set [2] (pH 7.5, 40°C, 14 days) it was 0.1%; in data set [2] (pH 8.0, 40°C, 14 days) it was -0.4%. The “Purity loss (RP-UPLC analysis) T28-T0 (%)” value in data set [2] (pH 7.0, 40°C) was -0.3%; in data set [2] (pH 7.5, 40°C) it was -0.1%; in data set [2] (pH 8.0, 40°C), -0.7%. The “Chemical stability at pH 7.5 after 14 days at 40°C (% degradation)” value in data set [2] (pH 7.5, 14 days, 40°C) is on record as -0.92%. For the same compound, the “Chemical stability at pH 7.5 after 28 days at 40°C (% degradation)” value in data set [2] (pH 7.5, 28 days, 40°C) was 0.31%. For the same compound, the clearance was 0.3 mL/h/kg in “PK in minipigs” (iv, Pig, 4.2 nmol/kg i.v.) and 4 mL/h/kg in the data set “PK in mice” (iv, 15 nmol/kg i.v.). Besides, the half-life was 156 h in the data set “PK in minipigs” (iv, Pig, 4.2 nmol/kg i.v.); 12.6 h in “PK in mice” (iv, 15 nmol/kg i.v.); 14.1 h in “PK in mice” (sc, 15 nmol/kg s.c.). The bioavailability in “PK in minipigs” was 68%; in the data set “PK in mice” (sc), 56%. For the same compound, the Cmax in the data set “PK in minipigs” (Pig) turned out to be 38 nM; in “PK in mice” (sc, 15 nmol/kg s.c.) it was 58 nM. Also, the time to peak (Tmax) in “PK in minipigs” (Pig) worked out at 24 h; in “PK in mice” (sc, 15 nmol/kg s.c.) it was 6 h. The MRT in “PK in mice” came to 17.4. Also, the T½ in the data set “PK in mice” is 12.6.
